This is an account of results in patent publication US20240246964A1 (Arbutus Biopharma Corporation, priority 2021, published 2024).

For assay [1], the target named is PD-L1 His protein / PD-1 Fc protein (Homo sapiens (Human), UniProt Q9NZQ7). As to the kind of experiment: HTRF Assay (PD-1/PD-L1 interaction). It counts as binding. To be noted: PD-L1 His 6 nM, PD-1 Fc 6 nM. (Time-resolved FRET reads energy transfer from a long-lived donor to a nearby acceptor.)
Another assay has as its target human PD-L1 (Homo sapiens (Human), UniProt Q9NZQ7). As to the kind of experiment: T cell activation luciferase reporter cell culture system (T Cell Activation Assay). It counts as cell-based. The conditions noted are these: luciferase reporter assay; PD-L1 aAPC/CHO-K1 cells with PD-1 effector Jurkat T cells. (In general: Reporter assays use an easily measured gene product as a stand-in for the process of interest.)

One may read the IC50 as the midpoint of a concentration-inhibition curve. Low values mean higher potency, high ones lower potency. One may read the EC50 as the concentration at which the effect is half-maximal. The low end stands for greater potency, the high end for weaker potency.

Chain of human PD-L1 (Q9NZQ7 19-290): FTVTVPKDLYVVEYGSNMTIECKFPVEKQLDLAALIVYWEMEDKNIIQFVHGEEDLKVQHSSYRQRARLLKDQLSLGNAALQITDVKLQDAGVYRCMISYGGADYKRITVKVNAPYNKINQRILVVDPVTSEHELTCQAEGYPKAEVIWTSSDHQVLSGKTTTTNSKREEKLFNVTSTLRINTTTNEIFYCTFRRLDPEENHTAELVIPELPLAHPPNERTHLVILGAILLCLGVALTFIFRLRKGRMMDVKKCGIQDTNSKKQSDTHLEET
Chain of PD-L1 His protein / PD-1 Fc protein (Q9NZQ7 19-238): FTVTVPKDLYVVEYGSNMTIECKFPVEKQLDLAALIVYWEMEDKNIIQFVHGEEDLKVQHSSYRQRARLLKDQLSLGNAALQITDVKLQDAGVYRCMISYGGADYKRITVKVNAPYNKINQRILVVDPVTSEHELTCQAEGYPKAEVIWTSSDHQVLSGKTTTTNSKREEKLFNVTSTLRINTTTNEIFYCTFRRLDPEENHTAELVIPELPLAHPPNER

In turn, `COc1cc(-c2nccc(-c3cccc(-c4ccc5c(CNC6CCOCC6)cn(C)c5n4)c3Cl)c2Cl)ccc1CNCCO` [Compound 606, 2-((4-(3-Chloro-4-(2-chloro-3-(1-methyl-3-(((tetrahydro-2H-pyran-4-yl)amino)methyl)-1H-pyrrolo[2,3-b]pyridin-6-yl)phenyl)pyridin-2-yl)-2-methoxybenzyl)amino)ethan-1-ol] registered an IC50 in assay [1] of 0.12 nM. This compound also registered an EC50 on human PD-L1 of 237 nM.
`COc1cc(-c2nccc(-c3cccc(-c4ccc5c(CNC6CCOCC6)cn(C)c5n4)c3Cl)c2Cl)ccc1CN1CC2(C1)CN(C(C)=O)C2` [Compound 609, 1-(6-(4-(3-Chloro-4-(2-chloro-3-(1-methyl-3-(((tetrahydro-2H-pyran-4-yl)amino)methyl)-1H-pyrrolo[2,3-b]pyridin-6-yl)phenyl)pyridin-2-yl)-2-methoxybenzyl)-2,6-diazaspiro[3.3]heptan-2-yl)ethan-1-one] displayed an IC50 in assay [1] of 0.22 nM. The compound further had an EC50 on human PD-L1 of 10000 nM.
`COc1cc(-c2ccnc(-c3cccc(-c4ccc(CNC5CCN(C(C)=O)CC5)c(OC)n4)c3Cl)c2Cl)ccc1CNC1CCN(C(C)=O)CC1` [Compound 621, 1-(4-(((6-(3-(4-(4-(((1-Acetylpiperidin-4-yl)amino)methyl)-3-methoxyphenyl)-3-chloropyridin-2-yl)-2-chlorophenyl)-2-methoxypyridin-3-yl)methyl)amino)piperidin-1-yl)ethan-1-one] came in with an IC50 in assay [1] of 1.54 nM. At human PD-L1, this compound showed an EC50 of 303 nM.
Consider `COc1nc(-c2cccc(-c3ccnc(-c4ccc(CNC5CCN(C(C)=O)CC5)c(OC)n4)c3Cl)c2Cl)ccc1CNC1CCN(C(C)=O)CC1` [Compound 627, 1-(4-(((6-(3-(5′-(((1-Acetylpiperidin-4-yl)amino)methyl)-3-chloro-6′-methoxy-[2,2′-bipyridin]-4-yl)-2-chlorophenyl)-2-methoxypyridin-3-yl)methyl)amino)piperidin-1-yl)ethan-1-one], for which the IC50 in assay [1] stood at 1.96 nM. The compound further registered an EC50 at human PD-L1 of 43.4 nM.
The compound `COc1nc(-c2cccc(-c3ccnc(-c4ccc(CN5CC6(CNC(=O)C6)C5)c(OC)n4)c3Cl)c2Cl)ccc1CN1CC2(CNC(=O)C2)C1` [Compound 628, 2-((3′-Chloro-4′-(2-chloro-3-(6-methoxy-5-((7-oxo-2,6-diazaspiro[3.4]octan-2-yl)methyl)pyridin-2-yl)phenyl)-6-methoxy-[2,2′-bipyridin]-5-yl)methyl)-2,6-diazaspiro[3.4]octan-7-one] returned an IC50 in assay [1] of 0.28 nM. At human PD-L1, this compound yielded an EC50 of 27.1 nM.
In the same order, the values of `COc1nc(-c2cccc(-c3ccnc(-c4ccc(CNC5CCOCC5)c(OC)n4)c3Cl)c2Cl)ccc1CNC1CCOCC1` [Compound 629, N-((6-(2-Chloro-3-(3-chloro-6′-methoxy-5′-(((tetrahydro-2H-pyran-4-yl)amino)methyl)-[2,2′-bipyridin]-4-yl)phenyl)-2-methoxypyridin-3-yl)methyl)tetrahydro-2H-pyran-4-amine] are 0.66 nM and 114 nM.
As to `COc1nc(-c2cccc(-c3ccnc(-c4ccc(CNC[C@@H]5CCC(=O)N5)c(OC)n4)c3Cl)c2Cl)ccc1CNC[C@@H]1CCC(=O)N1` [Compound 630, (S)-5-((((6-(2-Chloro-3-(3-chloro-6′-methoxy-5′-(((((S)-5-oxopyrrolidin-2-yl)methyl)amino)methyl)-[2,2′-bipyridin]-4-yl)phenyl)-2-methoxypyridin-3-yl)methyl)amino)methyl)pyrrolidin-2-one], the IC50 in assay [1] turned out to be 0.17 nM. Besides, a half-maximal response at human PD-L1 (EC50) required 49.6 nM.
In assay [1], `COc1cc(-c2nccc(-c3cccc(-c4ccc5c(CN(C)C6CCOCC6)cn(C)c5n4)c3Cl)c2Cl)ccc1CNC1CCOCC1` [Compound 635, N-((6-(2-Chloro-3-(3-chloro-2-(3-methoxy-4-(((tetrahydro-2H-pyran-4-yl)amino)methyl)phenyl)pyridin-4-yl)phenyl)-1-methyl-1H-pyrrolo[2,3-b]pyridin-3-yl)methyl)-N-methyltetrahydro-2H-pyran-4-amine] yielded an IC50 of 0.19 nM. In addition, it took 237 nM to reach a half-maximal effect on human PD-L1 (EC50).
In assay [1], `COc1nc(-c2cccc(-c3cncc(-c4ccc(CNC5CCN(C(C)=O)CC5)c(OC)n4)c3Cl)c2Cl)ccc1CNC1CCN(C(C)=O)CC1` [Compound 639, 1-(4-(((6-(3-(5-(((1-acetylpiperidin-4-yl)amino)methyl)-4′-chloro-6-methoxy-[2,3′-bipyridin]-5′-yl)-2-chlorophenyl)-2-methoxypyridin-3-yl)methyl)amino)piperidin-1-yl)ethan-1-one] displayed an IC50 of 0.19 nM. The compound further displayed a concentration for a half-maximal effect (EC50) at human PD-L1 of 23 nM.
The compound `COc1nc(-c2cccc(-c3cncc(-c4ccc(CN5CC6(CNC(=O)C6)C5)c(OC)n4)c3Cl)c2Cl)ccc1CN1CC2(CNC(=O)C2)C1` [Compound 640, 2-((4′-Chloro-5′-(2-chloro-3-(6-methoxy-5-((7-oxo-2,6-diazaspiro[3.4]octan-2-yl)methyl)pyridin-2-yl)phenyl)-6-methoxy-[2,3′-bipyridin]-5-yl)methyl)-2,6-diazaspiro[3.4]octan-7-one] came in with an IC50 in assay [1] of 0.22 nM. In addition, a half-maximal effect on human PD-L1 (EC50) was put at 26.2 nM.
In the same order, the values of `COc1cc(-c2cncc(-c3cccc(-c4ccc(CNC5CCN(C(C)=O)CC5)c(OC)n4)c3Cl)c2Cl)ccc1CNC1CCN(C(C)=O)CC1` [Compound 641, 1-(4-(((6-(3-(5-(4-(((1-Acetylpiperidin-4-yl)amino)methyl)-3-methoxyphenyl)-4-chloropyridin-3-yl)-2-chlorophenyl)-2-methoxypyridin-3-yl)methyl)amino)piperidin-1-yl)ethan-1-one] are 0.09 nM and 107 nM.
In assay [1], `COc1cc(-c2cncc(-c3cccc(-c4ccc(CN5CC6(CNC(=O)C6)C5)c(OC)n4)c3Cl)c2Cl)ccc1CN1CC2(CNC(=O)C2)C1` [Compound 642, 2-(4-(4-Chloro-5-(2-chloro-3-(6-methoxy-5-((7-oxo-2,6-diazaspiro[3.4]octan-2-yl)methyl)pyridin-2-yl)phenyl)pyridin-3-yl)-2-methoxybenzyl)-2,6-diazaspiro[3.4]octan-7-one] came in with an IC50 of 0.19 nM. In addition, on human PD-L1, a half-maximal response (EC50) required 181 nM.
In turn, `COc1nc(-c2cccc(-c3nccc(-c4ccc(CN5CC6(CNC(=O)C6)C5)c(OC)n4)c3Cl)c2Cl)ccc1CNC1CCN(C(C)=O)CC1` [Compound 680, 2-((2′-(3-(5-(((1-Acetylpiperidin-4-yl)amino)methyl)-6-methoxypyridin-2-yl)-2-chlorophenyl)-3′-chloro-6-methoxy-[2,4′-bipyridin]-5-yl)methyl)-2,6-diazaspiro[3.4]octan-7-one] gave an IC50 in assay [1] of 0.03 nM. On human PD-L1, this compound registered an EC50 of 26.3 nM.
For `COc1nc(-c2cccc(-c3nccc(-c4ccc(CN5CC6(CNC(=O)C6)C5)c(OC)n4)c3Cl)c2Cl)ccc1CN1CCC(O)CC1` [Compound 681, 2-((3′-Chloro-2′-(2-chloro-3-(5-((4-hydroxypiperidin-1-yl)methyl)-6-methoxypyridin-2-yl)phenyl)-6-methoxy-[2,4′-bipyridin]-5-yl)methyl)-2,6-diazaspiro[3.4]octan-7-one], the IC50 in assay [1] was 1.07 nM. For the same compound, the EC50 on human PD-L1 amounted to 23.4 nM.
